From publication PMC6152638, “Anti-Inflammatory Phenolic Acid Esters from the Roots and Rhizomes of Notopterygium incisium and Their Permeability in the Human Caco-2 Monolayer Cell Model” (Molecules : A Journal of Synthetic Chemistry and Natural …, 2017)
“Also recorded” adds a separate entry of the source. Read-outs that look alike come from different tables or passages of the source.

Columns and labels:
[1] = tested on: NO production in LPS-stimulated RAW264.7 cells; parameters: method as in PMID 28333094; settings: cited from earlier work
[2] = tested on: NO production in LPS-activated RAW264.7 macrophages; assay: NO inhibitory assay in LPS-activated RAW264.7 macrophages (Griess); assay type: cell-based, murine; settings: Mus musculus, read-out: IC50 on NO production
Experimental: Briefly, RAW 264.7 cells were maintained in DMEM containing 10% FBS, in a constant humidity atmosphere of 5% CO2 and 95% air at 37 °C, seeded in 96-well culture plates (Costar® #3599, Cambridge, MA, USA) at a density of 3 × 10^4 cells/well for 12 h, and then stimulated with LPS (1 μg/mL) and treated with various concentrations of assayed compounds for 24 h. After that, the cell culture supernatant (100 μL) was collected to react with Griess reagent (100 μL) for 15 min at room temperature. The nitrite in culture medium was measured as an indicator of NO production. NaNO2 was used to generate a standard curve, and NO production was determined by measuring the optical density at 540 nm in comparison with the standard curve. […] The experiments were performed in parallel three times, and L-NIL was used as a positive control. Cell viability (>95%) was assessed by using an MTT assay. The IC50 values were calculated by the software SPSS 16.0 (SPSS Inc., Chicago, IL, USA).

RAW264.7 cells = assay: MTT cytotoxicity assay in RAW264.7 cells; settings: viability less than 95% of control considered toxic
Experimental: The cell viability less than 95% of control was considered toxic.
Cell viability (>95%) was assessed by using an MTT assay.

Caco-2 cell monolayer = assay: Transport in the human intestinal Caco-2 cell monolayer model; assay type: in vitro ADME; settings: for absorption assignment: assigned from Papp AP→BL against propranolol and atenolol; for amount in the receiving chambers: HPLC quantification after transport
Experimental: (§1) For confluence and differentiation, cells were seeded at a density of 1 × 10^5 cells/cm^2 into 12-well Transwell plates (insert diameter 12 mm, pore size 3.0 μm, membrane growth area 1.12 cm^2, Costar® #3402) and were allowed to grow for 21 days before the permeation experiment. On Day 21, the monolayers with TEER values >500 Ω·cm^2 were qualified for the transport experiment. The transport study was initiated by the careful removal of the culture medium from AP and BL side of the inserts. Caco-2 monolayers were rinsed twice with pre-warmed HBSS and were incubated by pre-warmed HBSS for 30 min at 37 °C. Stock solutions of test phenolic acid esters were prepared in DMSO and diluted to 50 µM with HBSS. […] The assayed solutions (50 µM) were added to the AP side (0.5 mL, for absorption transport) or BL side (1.5 mL, for efflux transport) of the inserts, while the receiving chamber contained the corresponding volume of HBSS. Incubation was performed at 37 °C for 90 min, with shaking at 50 rpm. Samples were collected from the inserts, then frozen, lyophilized, redissolved in MeOH, and injected into HPLC system for quantitative analysis.
(§2) The Papp values were calculated as the following equation:Papp = (dQ/dt) × (1/A) × (1/C0) (cm/s)(1) where dQ/dt is the rate of the appearance of the test compound on the receiver compartment (μmol/s), C0 is the initial test compound concentration on the donor compartment (μmol/mL), and A is the surface area of Caco-2 monolayer (cm^2).

[3] = as above; assay type: in vitro ADME; settings: human; for Papp B→A at 90 min, 50 µM / efflux ratio at 90 min, 50 µM: Caco-2; for Papp B→A at 90 min, 50 µM: basolateral to apical; for efflux ratio at 90 min, 50 µM: ratio of Papp BL→AP to Papp AP→BL
Experimental: as §1, §2

[4] = Stability of the phenolic acid esters in HPLC method validation (Table S1); assay type: physicochemical
Experimental: Quantitative analysis of nine phenolic acid esters was performed on a Dionex Ultimate™ 3000 UHPLC system (Dionex Corp., Sunnyvale, CA, USA), comprised of Ultimate 3000 pump, autosampler, column compartment, and diode array detector. The signals were acquired and processed applying a Chromeleon version 6.80 software (Dionex Corp., Sunnyvale, CA, USA). HPLC separation was performed on a C18 Luna® column (250 mm × 4.60 mm i.d., 5 μm) (Phenomenex, Torrance, CA, USA). […] The detection wavelength was set at 305 nm for 2, 270 nm for 3, 259 nm for 4, 325 nm for 1 and 5–9. Column oven was maintained at 25 °C, and the injected volume was 20 μL. The calibration curves were constructed by plotting peak area (y, mAU × min) versus concentration (x, µM). The linear equations across 1–75 µM were y = 0.0087x − 0.0041 with r^2 of 0.9994 for 1, y = 0.0066x − 0.0013 with r^2 of 0.9999 for 2, y = 0.0667x − 0.0269 with r^2 of 0.9997 for 4, y = 0.0917x + 0.0040 with r^2 of 0.9998 for 5, y = 0.0614x − 0.0038 with r^2 of 0.9999 for 6, y = 0.0623x + 0.0051 with r^2 of 0.9999 for 8, and y = 0.0639x − 0.0464 with r^2 of 0.9978 for 9. […] Quantification was carried out by peak area measurements in comparison with the calibration curves.

[5] = RAW264.7, LPS 1 μg/mL, 24 h, n = 3
[6] = Caco-2, apical to basolateral, 50 µM, incubation up to 90 min, n = 4
[7] = Caco-2, values as stated in text
[8] = 50 µM, incubation up to 90 min, n = 4

| IC50 ([2]; RAW264.7, 24 h) | IC50 [2, 5] | Papp A→B at 90 min, 50 µM [3, 6] | Papp A→B at 90 min, 50 µM [3, 7] | Papp B→A at 90 min, 50 µM [3, 8] | efflux ratio at 90 min, 50 µM [3] | Stability ([4]; QC 5 μM) | Stability ([4]; QC 25 μM) | Stability ([4]; QC 50 μM) | amount in the receiving chambers (Caco-2 cell monolayer) | SMILES | IC50 [1] | cytotoxicity (MTT) (RAW264.7 cells; 1.5625–50 μM) | absorption assignment (Caco-2 cell monolayer) | cytotoxicity (MTT) (RAW264.7 cells; 3.125–100 μM) | cytotoxicity (MTT) (RAW264.7 cells; 0.78125–25 μM) | cytotoxicity (MTT) (RAW264.7 cells; 0.25 to 8 μM) |
| --- | --- | --- | --- | --- | --- | --- | --- | --- | --- | --- | --- | --- | --- | --- | --- | --- |
| – | – | – | – | – | – | – | – | – | – | COc1cc(/C=C/C(=O)OCC(O)COC(=O)/C=C/c2ccc(O)c(OC)c2)ccc1O [1,3-O-diferuloylglycerol] | 12 ± 1.07 µM | – | – | – | – | – |
| 9.37 ± 1.57 µM | – | – | – | – | – | – | – | – | – | CC(=N)NCCCC[C@H](N)C(=O)O [L-NIL, reference compound] | – | – | – | – | – | – |
| – | > 200 µM | – | – | – | – | – | – | – | – | O=C(O)/C=C/c1ccccc1 [Compound 11, cinnamic acid, reference compound] | – | – | – | – | – | – |
| – | 2.47 ± 0.64 µM | 2.21 ± 0.07 ×10⁻⁶ cm/s | ~1 ×10⁻⁶ cm/s | 2.55 ± 0.44 ×10⁻⁶ cm/s | 1.15 | 93.28±2.17% | 95.45±1.12% | 102.58±1.54% | – | COc1ccc(CCOC(=O)/C=C/c2ccc(O)c(OC)c2)cc1 [Compound 8, 4-methoxyphenethylferulate] | – | no toxicity | moderately absorbed | – | – | – |
| – | 11.1 ± 1.43 µM | 0.36 ± 0.04 ×10⁻⁶ cm/s | < 1 ×10⁻⁶ cm/s | 0.05 ± 0.01 ×10⁻⁶ cm/s | 0.15 | 92.28±2.07% | 100.74±2.15% | 95.85±2.01% | – | COc1ccc(C(=O)OCCc2ccc(O)cc2)cc1 [Compound 4, p-hydroxyphenethyl anisate] | – | – | poorly absorbed | no toxicity | – | – |
| – | 2.73 ± 0.58 µM | 0.66 ± 0.16 ×10⁻⁶ cm/s | < 1 ×10⁻⁶ cm/s | 0.7 ± 0.18 ×10⁻⁶ cm/s | 1.06 | 92.26±2.89% | 93.71±1.88% | 101.99±1.32% | – | COc1cc(/C=C/C(=O)OCCc2ccccc2)ccc1O [Compound 9, phenethylferulate] | – | no toxicity | poorly absorbed | – | – | – |
| – | 53.7 ± 4.13 µM | 18 ± 1.63 ×10⁻⁶ cm/s | > 10 ×10⁻⁶ cm/s | 13.4 ± 0.63 ×10⁻⁶ cm/s | – | 98.84±2.09% | 94.57±1.85% | 97.25±2.09% | – | O=C(OCc1ccccc1)c1ccccc1O [Compound 2, benzylsalicylate] | – | – | good absorption; also recorded: well-absorbed | – | – | – |
| – | 4.63 ± 1.73 µM | 0.08 ± 0.02 ×10⁻⁶ cm/s | < 0.1 ×10⁻⁶ cm/s | 0.13 ± 0.02 ×10⁻⁶ cm/s | 1.69 | 96.29±0.99% | 94.56±0.96% | 95.85±1.01% | – | COc1cc(/C=C/C(=O)OC2CC3CCC2(C)C3(C)C)ccc1O (stereo not drawn) [Compound 5, (−)-bornylferulate] | – | – | poorly absorbed; also recorded: hardly permeate | – | no toxicity | – |
| – | 67.9 ± 0.91 µM | – | – | – | – | – | – | – | – | COc1cc(/C=C/C(=O)O)ccc1O [Compound 10, ferulic acid, reference compound] | – | – | – | – | – | – |
| – | – | < 0.02 ×10⁻⁶ cm/s | < 0.1 ×10⁻⁶ cm/s | < 0.01 ×10⁻⁶ cm/s | – | – | – | – | below the lower limit of detection | CCCCCCCCCCCCCCCCCCCCCCCCCCCCCCOC(=O)/C=C/c1ccc(O)c(OC)c1 [Compound 7, trans-triacontyl-4-hydroxy-3-methoxycinnamate] | – | – | poorly absorbed; also recorded: hardly permeate | – | – | had cytotoxicity |
| – | 1.01 ± 0.08 µM | 0.5 ± 0.12 ×10⁻⁶ cm/s | < 1 ×10⁻⁶ cm/s | 0.62 ± 0.12 ×10⁻⁶ cm/s | 1.24 | 93.56±1.02% | 95.65±0.56% | 92.25±1.63% | – | CC/C(C)=C/CCOC(=O)/C=C/c1ccc(O)c(OC)c1 [Compound 1, 4-methyl-3-trans-hexenylferulate] | – | – | poorly absorbed | – | no toxicity | – |
| – | 12.6 ± 2.8 µM | 17.6 ± 2.27 ×10⁻⁶ cm/s | > 10 ×10⁻⁶ cm/s | 13.8 ± 2.74 ×10⁻⁶ cm/s | 0.79 | 95.08±1.56% | 102.02±1.96% | 102.05±1.39% | – | COc1cc(/C=C/C(=O)OC(C)C)ccc1O [Compound 6, isopropylferulate] | – | no toxicity | good absorption; also recorded: well-absorbed | – | – | – |
| – | – | – | 22.9 ×10⁻⁶ cm/s | – | – | – | – | – | – | CC(C)NCC(O)COc1cccc2ccccc12 (stereo not drawn) [propranolol, reference compound] | – | – | – | – | – | – |
| – | 70.5 ± 25.9 µM | < 0.05 ×10⁻⁶ cm/s | < 0.1 ×10⁻⁶ cm/s | < 0.02 ×10⁻⁶ cm/s | – | – | – | – | below the lower limit of detection | CC1(C)C2CCC1(C)C(OC(=O)C=Cc1ccccc1)C2 (stereo not drawn) [Compound 3, bornylcinnamate] | – | – | poorly absorbed; also recorded: hardly permeate | no toxicity | – | – |
| – | – | – | – | – | – | – | – | – | – | COc1cc(/C=C/C(=O)OCC(CO)OC(=O)/C=C/c2ccc(O)cc2)ccc1O (stereo not drawn) [1-O-feruloyl-2-O-p-coumaroylglycerol] | 9.12 ± 0.72 µM | – | – | – | – | – |
